{
  "source": "patent US20150133411A1",
  "about": "“COMPOUNDS WITH TRPV4 ACTIVITY, COMPOSITIONS AND ASSOCIATED METHODS THEREOF” (The University of Utah Research Foundation, priority 2012, published 2015)",
  "key": {"retinal ganglion cells": {"system": "retinal ganglion cells", "assay": "RGC density (TuJ-1+, CFP+) in retinal wholemounts of MB-injected mice", "format": "in vivo, mouse", "description": "FIG. 2 confirms that the mouse model for glaucoma causes RGC degeneration. Specifically, microbeads (MBs) were injected into the anterior chamber of a mouse eye. The MBs increase intraocular IOP above 15 mm Hg by blocking outflow of the aqueous humor within the anterior chamber of the eye. MBs were reinjected as needed to maintain a high IOP, typically one injection every two weeks. Contralateral eyes were injected intraocularly with the vehicle PBS (phosphate buffered saline) as controls. […] IOP levels were measured at least twice weekly before and after intraocular injections. After injections, mice recovered for 48 hours before IOP measurements resumed. Following 4 or 8 weeks of IOP elevation, mice were intracardially perfused with 4% paraformaldehyde in 1× PBS to fix the retinas. Retinas were then removed and processed for immunohistochemistry (IHC). Whole retinas were rinsed with 1× PBS three times at room temperature then incubated in blocking buffer (1× PBS+1% BSA). […] The density of RGCs was imaged with a confocal microscope (Zeiss LSM 510) and quantified by counting NeuN-, CFP- and/or Tuj-1-labeled somata in the RGC layer of the retinal wholemount preparation. […]\nRGD density was quantified in retinas isolated from TuJ-1^+ mice and transgenic Thy1-CRP^+ transgenic mice that had been injected with either MBs or vehicle (PBS) then dosed with either compound 1 or vehicle (PBS). […] TuJ-1 was quantified by immunohistochemistry using a Tuj-1-specific antibody conjugated to a fluorescent Alexa 488 or Alexa 594 secondary antibody. […] For fluorescence immunocytochemistry, retinal wholemounts were washed in PBS, then placed for 30 min. to 1 hour in blocking solution (10 ml PBS, 30 μL Triton-X 100, 100 mg bovine serum albumin, 100 μL 10% w/v Na azide solution) in OCT (Ted Pella, Redding, Pa.). […]"}, "[1]": {"system": "MB mouse model of glaucoma", "assay": "IOP in microbead (MB) mouse model of glaucoma, IP dosing", "format": "in vivo", "details": "10 mg/kg body weight IP; MB-injected mice", "description": "FIG. 2 confirms that the mouse model for glaucoma causes RGC degeneration. Specifically, microbeads (MBs) were injected into the anterior chamber of a mouse eye. The MBs increase intraocular IOP above 15 mm Hg by blocking outflow of the aqueous humor within the anterior chamber of the eye. MBs were reinjected as needed to maintain a high IOP, typically one injection every two weeks. Contralateral eyes were injected intraocularly with the vehicle PBS (phosphate buffered saline) as controls. […] IOP levels were measured at least twice weekly before and after intraocular injections. After injections, mice recovered for 48 hours before IOP measurements resumed. […] Retinas were then removed and processed for immunohistochemistry (IHC). […] After rinsing with PBS, PBS containing the secondary antibody conjugated to fluorophores (Alexa 488 or Alexa 594; […] Retinas were rinsed and flat-mounted on microscope slides. Mounting medium was added and retinal wholemounts were coverslipped. The density of RGCs was imaged with a confocal microscope (Zeiss LSM 510) and quantified by counting NeuN-, CFP- and/or Tuj-1-labeled somata in the RGC layer of the retinal wholemount preparation. Injection of microbeads induces RGC degeneration after 8 weeks but not after 4 weeks. […] Mice were sedated with IP injection of Avertin with final amount calculated by weight (e.g., 0.5 ml for 21-24 g animals). […]"}, "TRPV4": {"biological_target": "TRPV4 (Mus musculus, UniProt Q9EPK8)", "sequence (Q9EPK8 whole entry)": "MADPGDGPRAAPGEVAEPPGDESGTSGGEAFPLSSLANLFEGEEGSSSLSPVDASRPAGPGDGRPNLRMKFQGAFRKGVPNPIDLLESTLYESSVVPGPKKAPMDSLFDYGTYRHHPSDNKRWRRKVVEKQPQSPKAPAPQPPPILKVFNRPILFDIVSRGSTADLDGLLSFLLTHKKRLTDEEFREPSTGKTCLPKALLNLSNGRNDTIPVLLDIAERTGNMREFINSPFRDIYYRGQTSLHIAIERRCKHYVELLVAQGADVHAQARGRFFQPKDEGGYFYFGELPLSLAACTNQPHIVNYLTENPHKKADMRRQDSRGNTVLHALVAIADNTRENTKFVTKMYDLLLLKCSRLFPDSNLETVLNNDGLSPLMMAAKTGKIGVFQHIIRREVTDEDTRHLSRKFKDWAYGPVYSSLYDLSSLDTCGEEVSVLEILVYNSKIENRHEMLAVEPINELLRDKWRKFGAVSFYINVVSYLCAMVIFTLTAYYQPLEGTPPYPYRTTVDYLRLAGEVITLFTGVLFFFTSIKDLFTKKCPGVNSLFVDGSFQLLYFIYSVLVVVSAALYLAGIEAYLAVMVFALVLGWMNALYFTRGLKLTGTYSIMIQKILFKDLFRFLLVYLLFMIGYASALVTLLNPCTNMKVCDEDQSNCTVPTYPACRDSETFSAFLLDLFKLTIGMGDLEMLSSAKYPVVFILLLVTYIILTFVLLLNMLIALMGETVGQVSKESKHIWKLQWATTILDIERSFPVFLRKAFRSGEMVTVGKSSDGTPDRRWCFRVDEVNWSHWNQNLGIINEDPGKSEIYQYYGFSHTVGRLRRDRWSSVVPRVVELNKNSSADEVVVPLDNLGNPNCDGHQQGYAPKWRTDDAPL", "assay": "GSK-evoked [Ca++]i in retinal Müller glial cells", "format": "cell-based", "set-up": "endogenous in cells; host or cells: retinal Müller glial cells"}},
  "data": [
    {"compound": "Cc1c(C(=O)Nc2cccc(C(F)(F)F)c2)cc(-c2ccccc2)n1CCCN1CCOCC1", "note": "[Compound 1, N-(3-(trifluoromethyl)phenyl)-2-methyl-1-(3-morpholinopropyl)-5-phenyl-1H-pyrrole-3-carboxamide]", "values": [
      {"measurement": "TuJ-1+ cells in alpha, beta and omega regions", "setting": "retinal ganglion cells; MB-injected mice", "result": "rescues RGCs across all regions of the retina"},
      {"measurement": "density of RGCs (TuJ-1+ and Thy1:CFP+ cells)", "setting": "retinal ganglion cells; MB-injected mice, 8 weeks of increased IOP", "result": "RGC loss was rescued"},
      {"measurement": "CFP+ cells in alpha, beta and omega regions", "setting": "retinal ganglion cells; Thy1-CFP transgenic mice, MB-injected", "result": "rescues RGCs across all regions of the retina"},
      {"measurement": "MB-induced increase in IOP", "setting": "[1]", "result": "blocked the increase in IOP to the level observed in control mice"},
      {"measurement": "effect on GSK-evoked increase in [Ca++]i", "setting": "TRPV4; retinal Müller glial cells", "result": "blocked"},
      {"measurement": "reversibility of effect on glial calcium levels", "setting": "TRPV4; superfusion with control saline", "result": "reversible, as it can be washed out by 10 minute superfusion with control saline"}
    ]}
  ]
}
